One test concerns the target T1, Human immunodeficiency virus type 1 protease (Human immunodeficiency virus 1, UniProt Q72874). Put plainly: Compound was tested for inhibitory activity against HIV-1 protease; Not active.
Take `CO[C@@H]1OC(CNC(=O)C(C)(C)C)[C@@H](O)C(O)[C@@H]1O` (stereo partly specified): the IC50 entry is listed as “Not Active”.

Another test deals with T1, Human immunodeficiency virus type 1 protease. Kind of test: Compound was tested for inhibitory activity against HIV-1 protease.
As to `COc1ccc(O[C@@H]2C(CNC(=O)OCc3ccccc3)O[C@@H](OC)[C@H](O)C2OCc2ccccc2)cc1` (stereo partly specified), the half-inhibitory concentration (IC50) amounted to 4.48 µM.
Same read-out and setting: to `CO[C@@H]1OC(CNC(=O)OCc2ccccc2)[C@@H](O)C(OCc2ccccc2)[C@H]1O` (stereo partly specified) belongs 4.66 µM; to `CO[C@@H]1OC2COC(c3ccccc3)O[C@H]2C(OCc2ccccc2)[C@H]1O` (stereo partly specified), 4.85 µM.
Same read-out and setting: to `COc1ccc(O[C@@H]2C(CNC(C)=O)O[C@@H](OC)[C@H](O)C2OCc2ccccc2)cc1` (stereo partly specified) belongs 7.74 µM; to `CC(=O)NCC1O[C@@H](Oc2ccccc2)C(O)C(O)[C@@H]1O` (single isomer, unassigned), 8.95 µM.

As usually defined, the IC50 is the point on the concentration scale where inhibition reaches its midpoint. Low values mean greater potency, high ones weaker potency.
